Laboratory results reported in US12270064B2, “Peptide for complexing zinc ion, complex thereof and use therefor” (Guangzhou University, priority 2020, dated 2025).
No end group written: not given here.

Test: Complexing rate / complexing ability of zinc ion of soybean peptide fractions
Format: binding
Conditions: HPLC separation of F2, FIG. 2

## KYKRQRW [F21, single peptide component purified by HPLC from F2; also made by solid phase peptide synthesis]
  complexing ability with zinc ion, ranking among HPLC fractions: strongest complexing ability with zinc ion
